The record followed here is article PMC5218480 (PLoS ONE, 2017).

The subject of the assay is MV-4-11 cells. Kind of assay: Gene expression microarray analysis (Affymetrix PrimeView) and GSEA. Format: cell-based, human. Set-up: RFU PODN (11730768_x_at) / Fold change /veh PODN (11730768_x_at) / RFU LINC00158 (11744669_a_at) / Fold change /veh LINC00158 (11744669_a_at) / RFU DUSP10 (11751237_a_at) / Fold change /veh DUSP10 (11751237_a_at) / RFU ID3 (11757404_x_at) / Fold change /veh ID3 (11757404_x_at) / RFU PLEKHG5 (11737974_s_at) / Fold change /veh PLEKHG5 (11737974_s_at) / RFU LRRC4B (11730491_at) / Fold change /veh LRRC4B (11730491_at) / RFU GIMAP4 (11747438_a_at) / Fold change /veh GIMAP4 (11747438_a_at) / RFU KRT8 (11758183_x_at) / Fold change /veh KRT8 (11758183_x_at) / RFU CNN1 (11734310_a_at) / Fold change /veh CNN1 (11734310_a_at) / RFU VPS37D (11726825_at) / Fold change /veh VPS37D (11726825_at) / RFU C10orf10 (11716522_x_at) / Fold change /veh C10orf10 (11716522_x_at) / RFU KIR2DL2 /// KIR2DL4 /// KIR2DL5A /// KIR2DL5B /// KIR2DS1 /// KIR2DS2 /// KIR2DS3 /// KIR2DS4 /// KIR3DL3 /// KIR3DL3 /// KIR3DS1 (11738374_at) / Fold change /veh KIR2DL2 /// KIR2DL4 /// KIR2DL5A /// KIR2DL5B /// KIR2DS1 /// KIR2DS2 /// KIR2DS3 /// KIR2DS4 /// KIR3DL3 /// KIR3DL3 /// KIR3DS1 (11738374_at) / RFU C1QL1 (11718748_at) / Fold change /veh C1QL1 (11718748_at) / RFU TMPRSS4 (11747572_a_at) / Fold change /veh TMPRSS4 (11747572_a_at) / RFU HAMP (11756126_x_at) / Fold change /veh HAMP (11756126_x_at) / RFU RNFT2 (11725882_a_at) / Fold change /veh RNFT2 (11725882_a_at) / RFU NR4A2 (11747474_a_at) / Fold change /veh NR4A2 (11747474_a_at) / RFU ABCC12 (11746883_a_at) / Fold change /veh ABCC12 (11746883_a_at) / RFU TMEM136 (11760407_x_at) / Fold change /veh TMEM136 (11760407_x_at) / RFU CLDN22 /// WWC2 (11732394_at) / Fold change /veh CLDN22 /// WWC2 (11732394_at) / RFU HLA-DPB1 (11760878_x_at) / Fold change /veh HLA-DPB1 (11760878_x_at) / RFU SPINT1 (11716480_a_at) / Fold change /veh SPINT1 (11716480_a_at) / RFU GAP43 (11754022_s_at) / Fold change /veh GAP43 (11754022_s_at) / RFU A4GNT (11735810_at) / Fold change /veh A4GNT (11735810_at) / RFU PRB3 (11715151_x_at) / Fold change /veh PRB3 (11715151_x_at) / RFU TUBB4B (11761932_at) / Fold change /veh TUBB4B (11761932_at) / RFU CAPN14 (11732068_a_at) / Fold change /veh CAPN14 (11732068_a_at) / RFU TMCC2 (11721928_a_at) / Fold change /veh TMCC2 (11721928_a_at) / RFU IRGQ (11745062_a_at) / Fold change /veh IRGQ (11745062_a_at) / RFU FAM174B (11720279_a_at) / Fold change /veh FAM174B (11720279_a_at) / RFU TMPRSS4 (11748680_a_at) / Fold change /veh TMPRSS4 (11748680_a_at) / RFU FAM212B (11763350_a_at) / Fold change /veh FAM212B (11763350_a_at) / RFU PLEKHG5 (11743358_a_at) / Fold change /veh PLEKHG5 (11743358_a_at) / RFU ZSCAN30 (11745921_a_at) / Fold change /veh ZSCAN30 (11745921_a_at) / RFU CMKLR1 (11741424_a_at) / Fold change /veh CMKLR1 (11741424_a_at) / RFU LOC101060620 /// MAPK8IP1 (11723275_at) / Fold change /veh LOC101060620 /// MAPK8IP1 (11723275_at) / RFU SPTSSB (11747773_x_at) / Fold change /veh SPTSSB (11747773_x_at) / RFU PRSS12 (11739890_at) / Fold change /veh PRSS12 (11739890_at) / RFU BIN1 (11741810_x_at) / Fold change /veh BIN1 (11741810_x_at) / RFU WNT11 (11732464_a_at) / Fold change /veh WNT11 (11732464_a_at) / RFU C10orf10 (11716521_a_at) / Fold change /veh C10orf10 (11716521_a_at) / RFU C5orf56 (11738089_at) / Fold change /veh C5orf56 (11738089_at) / RFU CYB561 (11721691_x_at) / Fold change /veh CYB561 (11721691_x_at) / RFU ANKRD19P (11752326_a_at) / Fold change /veh ANKRD19P (11752326_a_at) / RFU OR2T12 /// OR2T33 /// OR2T8 (11738714_s_at) / Fold change /veh OR2T12 /// OR2T33 /// OR2T8 (11738714_s_at) / RFU VCAN (11748164_a_at) / Fold change /veh VCAN (11748164_a_at) / RFU JSRP1 (11732532_at) / Fold change /veh JSRP1 (11732532_at) / RFU KRTAP10-11 (11738290_x_at) / Fold change /veh KRTAP10-11 (11738290_x_at) / RFU MYO3A (11730013_a_at) / Fold change /veh MYO3A (11730013_a_at) / RFU EBF3 (11725865_a_at) / Fold change /veh EBF3 (11725865_a_at) / RFU CAMK2N1 (11719241_x_at) / Fold change /veh CAMK2N1 (11719241_x_at) / RFU C5orf56 (11738088_a_at) / Fold change /veh C5orf56 (11738088_a_at) / RFU OLFML3 (11715873_a_at) / Fold change /veh OLFML3 (11715873_a_at) / RFU LOC100653217 /// NTM (11731650_a_at) / Fold change /veh LOC100653217 /// NTM (11731650_a_at) / RFU MAPK11 (11762145_a_at) / Fold change /veh MAPK11 (11762145_a_at) / RFU FIZ1 (11724087_x_at) / Fold change /veh FIZ1 (11724087_x_at) / RFU OASL (11726364_x_at) / Fold change /veh OASL (11726364_x_at) / RFU SOX15 (11748057_x_at) / Fold change /veh SOX15 (11748057_x_at) / RFU CD79A (11719716_a_at) / Fold change /veh CD79A (11719716_a_at) / RFU HIST1H1D (11736915_at) / Fold change /veh HIST1H1D (11736915_at) / RFU CASKIN2 (11723855_a_at) / Fold change /veh CASKIN2 (11723855_a_at) / RFU LOC730098 (11760151_x_at) / Fold change /veh LOC730098 (11760151_x_at) / RFU OR4N2 (11742367_at) / Fold change /veh OR4N2 (11742367_at) / RFU PRRT2 (11749266_a_at) / Fold change /veh PRRT2 (11749266_a_at) / RFU SNX32 (11753110_a_at) / Fold change /veh SNX32 (11753110_a_at) / RFU CDHR5 (11726645_a_at) / Fold change /veh CDHR5 (11726645_a_at) / RFU RCAN1 (11760418_a_at) / Fold change /veh RCAN1 (11760418_a_at) / RFU FAM167A (11723789_a_at) / Fold change /veh FAM167A (11723789_a_at) / RFU FAM26E (11764081_at) / Fold change /veh FAM26E (11764081_at) / RFU ISYNA1 (11749810_s_at) / Fold change /veh ISYNA1 (11749810_s_at) / RFU ACY1 (11761880_at) / Fold change /veh ACY1 (11761880_at) / RFU 11764098_at / Fold change /veh 11764098_at / RFU SAMD14 (11745864_x_at) / Fold change /veh SAMD14 (11745864_x_at) / RFU NPB (11741838_a_at) / Fold change /veh NPB (11741838_a_at) / RFU TMPRSS6 (11731388_a_at) / Fold change /veh TMPRSS6 (11731388_a_at) / RFU KRTAP10-2 (11738614_at) / Fold change /veh KRTAP10-2 (11738614_at) / RFU ARHGAP8 /// PRR5-ARHGAP8 (11727945_x_at) / Fold change /veh ARHGAP8 /// PRR5-ARHGAP8 (11727945_x_at) / RFU KRTAP5-7 /// NADSYN1 (11734609_at) / Fold change /veh KRTAP5-7 /// NADSYN1 (11734609_at) / RFU RASL12 (11751679_a_at) / Fold change /veh RASL12 (11751679_a_at) / RFU CDKN2B (11736163_a_at) / Fold change /veh CDKN2B (11736163_a_at) / RFU PRF1 (11729649_at) / Fold change /veh PRF1 (11729649_at) / RFU, ZNF638 /// ZNF638-IT1 / Fold change vs veh, ZNF638 /// ZNF638-IT1 / RFU, PANK3 / Fold change vs veh, PANK3 / RFU, SH3YL1 / Fold change vs veh, SH3YL1 / RFU, ZEB2 / Fold change vs veh, ZEB2 / RFU, NRIP1 / Fold change vs veh, NRIP1 / RFU, PTTG1IP / Fold change vs veh, PTTG1IP / RFU, CAPN2 / Fold change vs veh, CAPN2 / RFU, MED14 / Fold change vs veh, MED14 / RFU, SNORA58 / Fold change vs veh, SNORA58 / RFU, C1orf63 / Fold change vs veh, C1orf63 / RFU, LRRFIP1 / Fold change vs veh, LRRFIP1 / RFU, NDUFAF7 / Fold change vs veh, NDUFAF7 / RFU, SLC12A2 / Fold change vs veh, SLC12A2 / RFU, IBTK / Fold change vs veh, IBTK / RFU, ESF1 / Fold change vs veh, ESF1 / Fold change vs veh, TMEM50B / RFU, TAOK1 / Fold change vs veh, TAOK1 / RFU, ACBD3 / Fold change vs veh, ACBD3 / RFU, TMA16 / Fold change vs veh, TMA16 / RFU, RWDD3 / Fold change vs veh, RWDD3 / RFU, BCAT1 / Fold change vs veh, BCAT1 / RFU, EDEM3 / Fold change vs veh, EDEM3 / RFU, TMEM33 / Fold change vs veh, TMEM33 / RFU, WDR75 / Fold change vs veh, WDR75 / RFU, AHCTF1 / Fold change vs veh, AHCTF1 / RFU, TFRC / Fold change vs veh, TFRC / RFU, ZDHHC17 / Fold change vs veh, ZDHHC17 / RFU, NOM1 / Fold change vs veh, NOM1 / RFU, ARL8B / Fold change vs veh, ARL8B / RFU, ZBTB11 / Fold change vs veh, ZBTB11 / RFU, TAMM41 / Fold change vs veh, TAMM41 / RFU, KIAA1704 /// LOC100996395 / Fold change vs veh, KIAA1704 /// LOC100996395 / RFU, ING1 / Fold change vs veh, ING1 / RFU, TRMT61B / Fold change vs veh, TRMT61B / RFU, FUBP3 / Fold change vs veh, FUBP3 / RFU, TP53 / Fold change vs veh, TP53 / RFU, TNKS2 / Fold change vs veh, TNKS2 / RFU, ZFP14 / Fold change vs veh, ZFP14 / RFU, ACTR2 / Fold change vs veh, ACTR2 / RFU, PPP3R1 / Fold change vs veh, PPP3R1 / RFU, PIK3R1 / Fold change vs veh, PIK3R1 / RFU, HNRNPA1 / Fold change vs veh, HNRNPA1 / RFU, RNF170 / Fold change vs veh, RNF170 / RFU, ZNF28 / Fold change vs veh, ZNF28 / RFU, RNGTT / Fold change vs veh, RNGTT / RFU, OGT / Fold change vs veh, OGT / RFU, BRD1 / Fold change vs veh, BRD1 / RFU, MARS / Fold change vs veh, MARS / RFU, ZNF655 / Fold change vs veh, ZNF655 / RFU, FAHD1 / Fold change vs veh, FAHD1 / RFU, BDP1 / Fold change vs veh, BDP1 / RFU, LRRCC1 / Fold change vs veh, LRRCC1 / RFU, ARID1A / Fold change vs veh, ARID1A / RFU, ZNF146 / Fold change vs veh, ZNF146 / RFU, ZNF330 / Fold change vs veh, ZNF330 / RFU, GPN3 / Fold change vs veh, GPN3 / RFU, C9orf123 / Fold change vs veh, C9orf123 / RFU, N4BP2L2 / Fold change vs veh, N4BP2L2 / RFU, ARFIP1 / Fold change vs veh, ARFIP1 / RFU, FAM179B / Fold change vs veh, FAM179B / RFU, BCL10 / Fold change vs veh, BCL10 / RFU, UHRF1BP1L / Fold change vs veh, UHRF1BP1L / RFU, BET1 / Fold change vs veh, BET1 / RFU, CNOT2 / Fold change vs veh, CNOT2 / RFU, ZNF268 / Fold change vs veh, ZNF268 / Fold change vs veh, ZNF507 / RFU, DGCR2 / Fold change vs veh, DGCR2 / RFU, WDSUB1 / Fold change vs veh, WDSUB1 / Fold change vs veh, HSP90B1 /// MIR3652 / RFU, ADSS / Fold change vs veh, ADSS / RFU, GK / Fold change vs veh, GK / RFU, ZNF148 / Fold change vs veh, ZNF148 / RFU, TAF9 / Fold change vs veh, TAF9 / RFU, SLC1A5 / Fold change vs veh, SLC1A5 / RFU, SLMO2 / Fold change vs veh, SLMO2 / RFU, ABCC4 / Fold change vs veh, ABCC4 / RFU, LOC101060439 /// RAP1B / Fold change vs veh, LOC101060439 /// RAP1B / RFU, RFX7 / Fold change vs veh, RFX7 / RFU, GTPBP10 / Fold change vs veh, GTPBP10 / RFU, CNEP1R1 / Fold change vs veh, CNEP1R1 / RFU, BIVM-ERCC5 /// ERCC5 / Fold change vs veh, BIVM-ERCC5 /// ERCC5 / RFU, ILF3 / Fold change vs veh, ILF3 / RFU 11762660_at / Fold change /veh 11762660_at / RFU VCAN (11757783_s_at) / Fold change /veh VCAN (11757783_s_at) / RFU DDX43 (11728927_at) / Fold change /veh DDX43 (11728927_at) / RFU KRT8 (11758188_x_at) / Fold change /veh KRT8 (11758188_x_at) / RFU NKD1 (11759106_at) / Fold change /veh NKD1 (11759106_at) / RFU SRD5A1 (11742802_a_at) / Fold change /veh SRD5A1 (11742802_a_at) / RFU TPSAB1 /// TPSB2 (11721975_s_at) / Fold change /veh TPSAB1 /// TPSB2 (11721975_s_at) / RFU GSTM3 (11746129_a_at) / Fold change /veh GSTM3 (11746129_a_at) / RFU IL23R (11737362_x_at) / Fold change /veh IL23R (11737362_x_at) / RFU TMEM51 (11727254_a_at) / Fold change /veh TMEM51 (11727254_a_at) / RFU PIWIL2 (11732686_x_at) / Fold change /veh PIWIL2 (11732686_x_at) / RFU ORM1 (11744905_x_at) / Fold change /veh ORM1 (11744905_x_at) / RFU CCDC152 (11743942_at) / Fold change /veh CCDC152 (11743942_at) / RFU ECM1 (11717891_a_at) / Fold change /veh ECM1 (11717891_a_at) / RFU IL23R (11748794_a_at) / Fold change /veh IL23R (11748794_a_at) / RFU TNFAIP8L3 (11732012_x_at) / Fold change /veh TNFAIP8L3 (11732012_x_at) / RFU MBOAT4 (11741988_at) / Fold change /veh MBOAT4 (11741988_at) / RFU 11764193_at / Fold change /veh 11764193_at / RFU TMEM53 (11763286_at) / Fold change /veh TMEM53 (11763286_at) / RFU MAGEB2 (11727129_at) / Fold change /veh MAGEB2 (11727129_at) / RFU TMEM200A (11744735_a_at) / Fold change /veh TMEM200A (11744735_a_at) / RFU CCDC152 (11751479_a_at) / Fold change /veh CCDC152 (11751479_a_at) / RFU FAM211A (11726209_a_at) / Fold change /veh FAM211A (11726209_a_at) / RFU RGS16 (11746705_a_at) / Fold change /veh RGS16 (11746705_a_at) / RFU VCAN (11755009_s_at) / Fold change /veh VCAN (11755009_s_at) / RFU RHOB (11743442_s_at) / Fold change /veh RHOB (11743442_s_at) / RFU RGS16 (11720943_a_at) / Fold change /veh RGS16 (11720943_a_at) / RFU RGS16 (11720944_at) / Fold change /veh RGS16 (11720944_at) / RFU, VPS4B / Fold change vs veh, VPS4B / RFU, CREB1 / Fold change vs veh, CREB1 / RFU, DNAJC13 / Fold change vs veh, DNAJC13 / RFU, GNAQ / Fold change vs veh, GNAQ / RFU, CDK5R1 / Fold change vs veh, CDK5R1 / RFU, ZRANB3 / Fold change vs veh, ZRANB3 / RFU, CUL4A / Fold change vs veh, CUL4A / RFU, CCNY / Fold change vs veh, CCNY / RFU, UFL1 / Fold change vs veh, UFL1 / RFU, COG3 / Fold change vs veh, COG3 / RFU, DIAPH2 / Fold change vs veh, DIAPH2 / RFU, SKA2 / Fold change vs veh, SKA2 / RFU, AFF3 / Fold change vs veh, AFF3 / RFU, LMF1 / Fold change vs veh, LMF1 / RFU, IPO11 / Fold change vs veh, IPO11 / RFU, DFFB / Fold change vs veh, DFFB / RFU, FOXP1 / Fold change vs veh, FOXP1 / RFU, CARD8 / Fold change vs veh, CARD8 / RFU, STRN3 / Fold change vs veh, STRN3 / RFU, ADK / Fold change vs veh, ADK / RFU, RASSF2 / Fold change vs veh, RASSF2 / RFU, WIPF1 / Fold change vs veh, WIPF1 / RFU, LARP1B / Fold change vs veh, LARP1B / RFU, RASA1 / Fold change vs veh, RASA1 / RFU, RB1 / Fold change vs veh, RB1 / RFU, PPFIA1 / Fold change vs veh, PPFIA1 / RFU, MAT2A / Fold change vs veh, MAT2A / RFU, CCT5 / Fold change vs veh, CCT5 / RFU, WDR92 / Fold change vs veh, WDR92 / RFU, CUX1 / Fold change vs veh, CUX1 / RFU, TTC7A / Fold change vs veh, TTC7A / RFU, TMEM135 / Fold change vs veh, TMEM135 / RFU, DEPTOR / Fold change vs veh, DEPTOR / RFU, CPM / Fold change vs veh, CPM / RFU, DNAJB6 / Fold change vs veh, DNAJB6 / RFU, CACNA2D3 / Fold change vs veh, CACNA2D3 / RFU, DTX4 / Fold change vs veh, DTX4 / RFU, TFCP2 / Fold change vs veh, TFCP2 / RFU, GMCL1 /// GMCL1P1 / Fold change vs veh, GMCL1 /// GMCL1P1 / RFU, AEBP2 / Fold change vs veh, AEBP2 / RFU, SNHG1 /// SNORD22 /// SNORD25 /// SNORD26 /// SNORD27 /// SNORD28 /// SNORD29 /// SNORD31 / Fold change vs veh, SNHG1 /// SNORD22 /// SNORD25 /// SNORD26 /// SNORD27 /// SNORD28 /// SNORD29 /// SNORD31 / Fold change (Aza/veh), C12orf56 (ProbeSet 11735607_a_at) / Fold change (ACY-1035/veh), C12orf56 (ProbeSet 11735607_a_at) / Fold change (Aza/veh), FGFR1OP (ProbeSet 11751329_s_at) / Fold change (ACY-1035/veh), FGFR1OP (ProbeSet 11751329_s_at) / Fold change (Aza/veh), VPS36 (ProbeSet 11739960_a_at) / Fold change (ACY-1035/veh), VPS36 (ProbeSet 11739960_a_at) / RFU SYPL1 (11715823_x_at) / Fold change /veh SYPL1 (11715823_x_at) / RFU IGFBP7 (11715501_s_at) / Fold change /veh IGFBP7 (11715501_s_at) / RFU REEP3 (11722064_at) / Fold change /veh REEP3 (11722064_at) / RFU IGLL1 (11728026_x_at) / Fold change /veh IGLL1 (11728026_x_at): dose or concentration left out as unconfirmed. Conditions: MV-4-11 cells, 48 hours.

Take `Nc1ccc(-c2cccs2)cc1NC(=O)c1ccc2c(c1)cc(C1CC1)n2CCN1CCOCC1` [ACY-1035]: the “Fold change /veh HAMP (11756126_x_at)” value is 0.97.
